Data taken from patent publication EP4534539A1, “DIDEUTERATED CAMPTOTHECIN DERIVATIVE AND PREPARATION METHOD THEREFOR” (priority 2022, dated 2023).
pIC50: −log10 of the molar value. Read-outs that look alike come from different tables or passages of the source.

Legend:
[1] = system: MDA-MB-468 cells; assay: Inhibitory activity on MDA-MB-468 cells (MTT); assay type: cell-based; details: for pIC50: Homo sapiens, read-out: MDA-MB-468 IC50
Experimental: (§1) MDA-MB-468 cells (purchased from ATCC) were cultured in L-15 culture medium (purchased from Sigma-Aldrich), NCI-N87 cells (purchased from ATCC) were cultured in RPMI-1640 culture medium (purchased from Gibco), and HT29 cells (purchased from ATCC) were cultured in McCoy's 5A culture medium (purchased from Gibco), each of which was supplemented with 10% fetal bovine serum and 1% penicillin-streptomycin solution, and placed in a 5% CO2 incubator at 37°C. The cells were seeded in 96-well plates at 3000 cells per well and cultured overnight. Different concentrations of drugs were respectively added, and the cells were placed in a normal incubator (21% O2, 5% CO2, and 74% N2) and cultured for 72 h. 100 µL of culture medium was removed. 10 µL of MTT solution (5 mg/mL) was added. Then the cells were cultured in the incubator for 4 hours. 50 µL of triple combination solution (10% SDS, 5% isobutanol, and 0.012 mol/L HCl) was added. The cells were placed in the incubator overnight. OD values were measured at 540 nm wavelength, and median inhibition concentration IC50 of the drug on tumor cell growth was calculated (n=3).

[2] = system: NCI-N87 cells; assay: Inhibitory activity on NCI-N87 cells (MTT); assay type: cell-based, human; details: for pIC50: Homo sapiens, read-out: NCI-N87 IC50
Experimental: as §1

[3] = assay type: in vivo; details: SD rats, intravenous administration once a day for 7 consecutive days; result in words
Source text: The possible toxic reactions and severity thereof of the drug on SD rats were observed after continuous intravenous administration for 7 days. The toxicity of the compound in rodents was preliminarily evaluated. SD rats (Beijing Vital River Laboratory Animal Technology Co., Ltd.) were randomly divided, 6 rats/group, half male and half female, and injected with samples (preparation: 10% DMSO-90% (20% 2-hydroxypropyl-β-cyclodextrin-physiological saline), diluted according to the dose) once a day for 7 consecutive days. Weight and food intake were monitored every two days, and the status of the animals was observed. Blood samples were taken 24 h after the last dose for hematology, blood biochemistry and coagulation indexes.

[4] = Pharmacokinetic test - rats; set-up: species or system SD rats; details: in vivo, 3 mg/kg, Rat PK, IV, 3 mpk, single injection, plasma; for Vd: read-out: Vz
Experimental: Experimental objective: To evaluate the pharmacokinetic characteristics of the compound of the present application in rats.
SD rats (Beijing Vital River Laboratory Animal Technology Co., Ltd.) were randomly divided, 6 rats/group, half male and half female, and were injected once with a sample (10% DMSO-90% (20% 2-hydroxypropyl-β-cyclodextrin-physiological saline), diluted according to the dose). Plasma samples were respectively taken before administration, and at 5 min, 30 min, 1 h, 2 h, 4 h, 6 h, 8 h, 10 h, and 24 h after administration. The sample concentration in plasma was determined by LC-MS method, and pharmacokinetic parameters were calculated (see Table 4). Table 4 Pharmacokinetic characteristics of the compound of the present application in SD rats

[5] = system: HT29 cells; assay: Inhibitory activity on HT29 cells (MTT); assay type: cell-based, human; details: for pIC50: Homo sapiens, read-out: HT29 IC50
Experimental: as §1

[6] = system: HCT116 cells; assay: HCT-116 cell inhibitory activity test (MTT); assay type: cell-based; details: Homo sapiens, read-out: IC50 Activity
Experimental: HCT116 cells (purchased from ATCC) were cultured in a 5% CO2 incubator at 37 °C using DMEM culture medium (purchased from Gibco) supplemented with 10% fetal bovine serum and 1% penicillin-streptomycin solution. The cells were seeded in 96-well plates at 3000 cells per well and cultured overnight. Different concentrations of drugs were respectively added, and the cells were placed in a normal incubator (21 % O2, 5% CO2, and 74% N2) and cultured for 72 h. 100 µL of culture medium was removed. 10 µL of MTT solution (5 mg/mL) was added. Then the cells were cultured in the incubator for 4 hours. 50 µL of triple combination solution (10% SDS, 5% isobutanol, and 0.012 mol/L HCl) was added. The cells were placed in the incubator overnight. OD values were measured at 540 nm wavelength, and median inhibition concentration IC50 of the drug on tumor cell growth was calculated (n=3). Compounds with activity designated as "A" provide IC50≤10nM. Compounds with activity designated as "B" provide IC50 of 10 nM to 100 nM. Compounds with activity designated as "C" provide IC50 of 100 nM to 1000 nM. Compounds with activity designated as "D" provide IC50 of 1000 nM to 10000 nM. Titer (nM); Efficacy (IC50).

[7] = Pharmacokinetic test - mice; assay type: in vivo, Balb/c mice; details: mouse, 3 mg/kg, Mice PK, IV, 3 mpk, single injection, plasma
Experimental: Experimental objective: To evaluate the pharmacokinetic characteristics of the compound of the present application in mice.
Balb/c mice (purchased from Beijing Vital River) were randomly divided, 12 mice/group, half male and half female, and were injected once with a sample (10% DMSO-90% (20% 2-hydroxypropyl-β-cyclodextrin-physiological saline), diluted according to the dose). Cross samples of plasma were respectively taken before administration, and at 5 min, 30 min, 1 h, 2 h, 4 h, 6 h, 8 h, 10 h, and 24 h after administration. The sample concentration in plasma was determined by LC-MS method, and pharmacokinetic parameters were calculated (see Table 3). Table 3 Pharmacokinetic characteristics of the compound of the present application in mice

Row | Structure (SMILES) | MDA-MB-468 Inh.max ([1]; MDA-MB-468 cells, 72 h, MTT) | NCI-N87 Inh.max ([2]; NCI-N87 cells, 72 h, MTT) | safety [3] | AUC(0-inf) [4] | Cmax [4] | clearance [4] | half-life [4] | Vd [4] | HT29 Inh.max ([5]; HT29 cells, 72 h, MTT) | other results
1 | [2H]C1([2H])OC(=O)[C@](O)(CC)c2cc3n(c(=O)c21)Cc1c-3nc2ccc(O)cc2c1CC [Compound A-9] | >80% | >80% | better safety | 99.5 ng·h/mL | 288 ng/mL | 167 mL/min/kg | 1.35 h | 19.5 L/kg | >90% | pIC50 ([1]; MDA-MB-468, 72 h): > 8.00; pIC50 ([2]; NCI-N87, 72 h): > 8.00; pIC50 ([5]; HT-29, 72 h): > 8.00; pIC50 ([6]; HCT-116, 72 h): > 8.00
2 | [2H]C1([2H])OC(=O)[C@](O)(CC)c2cc3n(c(=O)c21)Cc1c-3nc2cc(F)c(C)c3c2c1[C@@H](N)CC3 [Compound A-11] | >80% | >70% | better safety | 135 ng·h/mL | 215 ng/mL | 381 mL/min/kg | 0.91 h | 30.1 L/kg | >90% | AUC(0-inf) [7]: 321 ng·h/mL; Cmax [7]: 902 ng/mL; clearance [7]: 156 mL/min/kg; half-life [7]: 1.19 h; Vd ([7]; read-out: Vz): 16 L/kg; pIC50 ([1]; MDA-MB-468 cells, 72 h, MTT, n=3): > 8.00; pIC50 ([2]; NCI-N87 cells, 72 h, MTT, n=3): > 8.00; pIC50 ([5]; HT-29, HT29 cells, 72 h, MTT, n=3): > 8.00; pIC50 ([6]; HCT-116, HCT116 cells, 72 h, MTT, n=3): > 8.00
